Experimental data: the supplement of paper PMC11208160

Assay: recombinant barcode read abundance after kanamycin selection (control-corrected) (log10(CPM+1)); higher = more efficient recombination; sequences stand for … in AGTGCAGAGAAAATCGGCCAGTTTTCTCTGCCTGCAGTCCGCATGCCGT…AGATTTATGCAGCGGACTGCCTTTCTCCCAAAGTGATAAACCGGACAGTATCATGGACCGGTTTTCCCGGTAATCCGTATTTGCAAGGTTGGTTTCACT; site = the 11-nt target
Outline: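 In E. coli, a pooled library matched targets to IS621 bridge RNA target-binding loops and was introduced alongside a donor plasmid. Cells went onto chloramphenicol/ampicillin/kanamycin with 0.1 mM IPTG or onto chloramphenicol/ampicillin LB agar as control, in duplicate. Recombination efficiency, from recombinant-junction barcodes as counts per million, is averaged and control-corrected. It is reported as log10(CPM+1).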
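Further: IS621 recombinase and bridge RNA in Escherichia coli cells.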

Sequence	recombinant barcode read abundance (log10)
AGATAGCCTTGGGTTCTAACCTGTTGCCT (site GGATAGCCTAG)	0.157
AGATAGCCTTGGGTTCTAACCTGTTGCCT (site TGATAGCCTAG)	0.206
AGATCCACTTGGGTTCTAACCTGTTGCCT (site AGATCCACTAG)	0.832
AGATCCACTTGGGTTCTAACCTGTTGCCT (site CGATCCACTAG)	0.0967
AGATCCACTTGGGTTCTAACCTGTTGCCT (site GGATCCACTAG)	0.0847
AGATCCACTTGGGTTCTAACCTGTTGCCT (site TGATCCACTAG)	0.0724
AGATGGACTTGGGTTCTAACCTGTTGCAG (site AGATGGACTCT)	2.52
AGATGGACTTGGGTTCTAACCTGTTGCAG (site AGATGGCCTAT)	0.0344
AGATTCGCTTGGGTTCTAACCTGTTGCCG (site AGATTCCCTCG)	0.0487
AGATTCGCTTGGGTTCTAACCTGTTGCCG (site AGATTCGCTCG)	0.941
AGATTTACTTGGGTTCTAACCTGTTGCCT (site AAACTTACTAG)	1.28
AGATTTACTTGGGTTCTAACCTGTTGCCT (site AGATTTACTAG)	0.143
AGCACGACTTGGGTTCTAACCTGTTGCTG (site AGCACGACTCA)	0.684
AGCACGACTTGGGTTCTAACCTGTTGCTG (site AGCAGGACTCG)	0.157
AGCAGAGCTTGGGTTCTAACCTGTTGCTG (site AGCAGAGCTCA)	1.39
AGCAGAGCTTGGGTTCTAACCTGTTGCTG (site AGCAGAGCTCC)	1.94
AGCAGAGCTTGGGTTCTAACCTGTTGCTG (site AGCAGAGCTCG)	0.133
AGCAGAGCTTGGGTTCTAACCTGTTGCTG (site AGCAGAGCTCT)	0.93
AGCATCACTTGGGTTCTAACCTGTTGCCT (site AACATCACTCG)	0.135
AGCATCACTTGGGTTCTAACCTGTTGCCT (site AGCATCACTAG)	0.499
AGCATTGCTTGGGTTCTAACCTGTTGCCT (site AGCATTGCTAG)	0.235
AGCATTGCTTGGGTTCTAACCTGTTGCCT (site AGCCTTGCTAG)	0.629

Sequence	recombinant barcode read abundance (log10)
AGCATTGCTTGGGTTCTAACCTGTTGCCT (site AGCGTTGCTAG)	0.724
AGCATTGCTTGGGTTCTAACCTGTTGCCT (site AGCTTTGCTAG)	0.0996
AGCCACCCTTGGGTTCTAACCTGTTGCCT (site AGCCACACTAG)	0.201
AGCCACCCTTGGGTTCTAACCTGTTGCCT (site AGCCACCCTAG)	0.425
AGCCACCCTTGGGTTCTAACCTGTTGCCT (site AGCCACGCTAG)	0.265
AGCCACCCTTGGGTTCTAACCTGTTGCCT (site AGCCACTCTAG)	0.522
AGCCGCCCTTGGGTTCTAACCTGTTGCAT (site AGCCGCCCTAT)	0.172
AGCCGCCCTTGGGTTCTAACCTGTTGCAT (site CGCCGCCCTAG)	0.119
AGCCGTACTTGGGTTCTAACCTGTTGCCT (site AGACGTACTAG)	0.129
AGCCGTACTTGGGTTCTAACCTGTTGCCT (site AGCCGTACTAG)	0.341
AGCCGTACTTGGGTTCTAACCTGTTGCCT (site AGGCGTACTAG)	0.318
AGCCGTACTTGGGTTCTAACCTGTTGCCT (site AGTCGTACTAG)	0.0183
AGCCTGCCTTGGGTTCTAACCTGTTGCCT (site AGCCTGACTAG)	0.0617
AGCCTGCCTTGGGTTCTAACCTGTTGCCT (site AGCCTGCCTAG)	0.389
AGCCTGCCTTGGGTTCTAACCTGTTGCCT (site AGCCTGGCTAG)	0.549
AGCCTGCCTTGGGTTCTAACCTGTTGCCT (site AGCCTGTCTAG)	0.0826
AGCCTGTCTTGGGTTCTAACCTGTTGCCT (site AGCCTGACTAG)	0.444
AGCCTGTCTTGGGTTCTAACCTGTTGCCT (site AGCCTGCCTAG)	0
AGCCTGTCTTGGGTTCTAACCTGTTGCCT (site AGCCTGGCTAG)	0.143
AGCCTGTCTTGGGTTCTAACCTGTTGCCT (site AGCCTGTCTAG)	1.36
AGCGAATCTTGGGTTCTAACCTGTTGCCG (site AGCGAATCTCG)	0.217
AGCGAATCTTGGGTTCTAACCTGTTGCCG (site GAGCGTCCTTA)	0.232

Sequence	recombinant barcode read abundance (log10)
AGCGCGACTTGGGTTCTAACCTGTTGCCT (site AGCGCGACTAG)	0.381
AGCGCGACTTGGGTTCTAACCTGTTGCCT (site AGGACGACTAG)	0.338
AGCGCTCCTTGGGTTCTAACCTGTTGCGT (site AGCCCTCCTAT)	0.532
AGCGCTCCTTGGGTTCTAACCTGTTGCGT (site AGCGCTCCTAC)	0.646
AGCGGGCCTTGGGTTCTAACCTGTTGCCT (site AGCGGACCTAG)	0.382
AGCGGGCCTTGGGTTCTAACCTGTTGCCT (site AGCGGCCCTAG)	1.08
AGCGGGCCTTGGGTTCTAACCTGTTGCCT (site AGCGGGCCTAG)	0.313
AGCGGGCCTTGGGTTCTAACCTGTTGCCT (site AGCGGTCCTAG)	0.072
AGCTAAACTTGGGTTCTAACCTGTTGCCT (site AGCTAAACTAG)	0.256
AGCTAAACTTGGGTTCTAACCTGTTGCCT (site AGCTTATCTAG)	0.141
AGCTACTCTTGGGTTCTAACCTGTTGCTT (site AGCTACTCTAA)	0.694
AGCTACTCTTGGGTTCTAACCTGTTGCTT (site AGTTAATCTAA)	0.144
AGCTCATCTTGGGTTCTAACCTGTTGCCT (site AGCTCACCTAG)	0.0516
AGCTCATCTTGGGTTCTAACCTGTTGCCT (site AGCTCATCTAG)	0.0912
AGCTTAGCTTGGGTTCTAACCTGTTGCCG (site AGCTTAGCTAG)	0.14
AGCTTAGCTTGGGTTCTAACCTGTTGCCG (site AGCTTAGCTCG)	0.19
AGCTTAGCTTGGGTTCTAACCTGTTGCCG (site AGCTTAGCTGG)	0.0372
AGCTTAGCTTGGGTTCTAACCTGTTGCCG (site AGCTTAGCTTG)	0.188
AGGAATTCTTGGGTTCTAACCTGTTGCCT (site AGAAATTCTAG)	0.443
AGGAATTCTTGGGTTCTAACCTGTTGCCT (site AGCAATTCTAG)	0.356
AGGAATTCTTGGGTTCTAACCTGTTGCCT (site AGGAATTCTAG)	1.59
AGGAATTCTTGGGTTCTAACCTGTTGCCT (site AGTAATTCTAG)	0

Sequence	recombinant barcode read abundance (log10)
AGGACTTCTTGGGTTCTAACCTGTTGCCT (site AGGACTTCTAG)	0.618
AGGACTTCTTGGGTTCTAACCTGTTGCCT (site AGGATTACTAG)	0.704
AGGAGCCCTTGGGTTCTAACCTGTTGCTG (site AGGAGCCCTAA)	0.0752
AGGAGCCCTTGGGTTCTAACCTGTTGCTG (site AGGAGCCCTCA)	1.75
AGGAGCCCTTGGGTTCTAACCTGTTGCTG (site AGGAGCCCTGA)	0.0914
AGGAGCCCTTGGGTTCTAACCTGTTGCTG (site AGGAGCCCTTA)	0.194
AGGAGCTCTTGGGTTCTAACCTGTTGCTA (site AGGAACTCTAA)	0.131
AGGAGCTCTTGGGTTCTAACCTGTTGCTA (site AGGAGCTCTTA)	1.27
AGGATAACTTGGGTTCTAACCTGTTGCCT (site AGGATAACTAG)	0.655
AGGATAACTTGGGTTCTAACCTGTTGCCT (site AGGATACCTAG)	0
AGGATACCTTGGGTTCTAACCTGTTGCCT (site AGGATAACTAG)	0.219
AGGATACCTTGGGTTCTAACCTGTTGCCT (site AGGATACCTAG)	1.56
AGGATATCTTGGGTTCTAACCTGTTGCCT (site AAGATATCTAG)	0.114
AGGATATCTTGGGTTCTAACCTGTTGCCT (site ACGATATCTAG)	0.14
AGGATATCTTGGGTTCTAACCTGTTGCCT (site AGGATATCTAG)	0.559
AGGATATCTTGGGTTCTAACCTGTTGCCT (site ATGATATCTAG)	0.261
AGGATCCCTTGGGTTCTAACCTGTTGCAT (site AGGATCCCTAT)	1.99
AGGATCCCTTGGGTTCTAACCTGTTGCAT (site AGGATCCCTCT)	1.07
AGGATTACTTGGGTTCTAACCTGTTGCCT (site AGGACTTCTAG)	0.161
AGGATTACTTGGGTTCTAACCTGTTGCCT (site AGGATTACTAG)	0.641
